Assay results: patent US9434695B2, “Nitrogenous heterocyclic derivatives and their application in drugs” (SUNSHINE LAKE PHARMA CO., LTD., priority 2012, dated 2016)
pIC50: −log10 of the molar value.

System: BHK-21 cells
Assay: inhibition of BHK-21 cell proliferation (CCK-8, optical density at 450 nm)
Type: cell-based
Details: for pIC50: Mesocricetus auratus, inhibition ratio of cell proliferation, 48 hours after dosing, CCK-8; for The ratio with PFD (multiple): ratio of Pirfenidone IC50 from the compound IC50, the bigger the multiple, the better the vitro inhibitory activity, 48 hours
Description: Taking BHK-21 cells which in exponential growth phase, collecting and counting the cells which had digestive transfer culture after fusion growth 85-95%, adjusting the cell density to 2×10^4 cells per milliliter, seeding the cells into 96-well plates, 100 μl/well, the cells were incubated in a 5% CO2 incubator at 37° C.
The upper clear liquid of the 96-well plates was removed after the cells adhering to the wall 24 hours. The above compounds were confected into solutions of different concentration and the solutions were added to the wells, 100 μl/well. Each concentration solution in 3 replicates, the cells were subcultured 48 hours after dosing.
3. Testing the Optical Density
10 μl of CCK-8 solution was added to each well 48 hours after dosing, and incubated for 2 hours. The optical density (A) of each well was determined by a microplate reader at 450 nm wavelength. Calculating the inhibition ratio of cell proliferation of each compound is based on A and the inhibition ratio of cell proliferation (inhibition ratio, IR)=(1−value of experimental group (Ai)/value of control group (Ao))×100% and the IC50 of each compound at 48 hours was calculated by data processing software.

| Structure (SMILES) | pIC50 | The ratio with PFD (multiple) |
| --- | --- | --- |
| Cc1ccc(=O)n(-c2ccc(CN3CCOCC3)c(F)c2)c1 [Example 1, 1-(3-fluoro-4-(morpholinomethyl)phenyl)-5-methylpyridin-2(1H)-one] | 3.40 | 16.6 |
| Cc1cc(=O)n(-c2ccc(N3CCOCC3)c(F)c2)c(C)n1 [Example 7, 3-(3-fluoro-4-morpholinophenyl)-2,6-dimethylpyrimidin-4(3H)-one] | 3.13 | 1.35 |
| CCN(CC)c1ccc(-n2c(C)nc(C)cc2=O)cc1F [Example 8, 3-(4-(diethylamino)-3-fluorophenyl)-2,6-dimethylpyrimidin-4(3H)-one] | 2.78 | 2.31 |
| Cc1cc(=O)n(-c2ccc(N3CCS(=O)(=O)CC3)c(F)c2)c(C)n1 [Example 10, 3-(4-(1,1-dioxidothiomorpholino)-3-fluorophenyl)-2,6-dimethylpyrimidin-4(3H)-one] | 2.26 | 0.72 |
| Cc1cc(=O)n(-c2ccc(N3CCCCC3)c(F)c2)c(C)n1 [Example 11, 3-(3-fluoro-4-(piperidin-1-yl)phenyl)-2,6-dimethylpyrimidin-4(3H)-one] | 2.88 | 2.91 |
| Cc1cc(=O)n(-c2ccc(N3CCN(C)CC3)c(F)c2)c(C)n1 [Example 12, 3-(3-fluoro-4-(4-methylpiperazin-1-yl)phenyl)-2,6-dimethylpyrimidin-4(3H)-one] | 2.85 | 2.74 |
| Cc1cc(=O)n(-c2cc(F)c3c(c2)OCC2CCCN32)c(C)n1 (centres unmarked) [Example 13, 3-(9-fluoro-2,3,3a,4-tetrahydro-1H-benzo[b]pyrrolo[1,2-d][1,4]oxazin-7-yl)-2,6-dimethylpyrimidin-4(3H)-one] | 2.70 | 2.01 |
| Cc1cc(=O)n(-c2cnc(-c3ccc(N4CCOCC4)cc3)s2)c(C)n1 [Example 15, 2,6-dimethyl-3-(2-(4-morpholinophenyl)thiazol-5-yl)pyrimidin-4(3H)-one] | 3.01 | 3.97 |
| Cc1cc(=O)n(-c2ccc(-n3cccc3)c(F)c2)c(C)n1 [Example 18, 3-(3-fluoro-4-(1H-pyrrol-1-yl)phenyl)-2,6-dimethylpyrimidin-4(3H)-one] | 3.25 | 8.10 |
| Cc1cc(=O)n(-c2ccc(-n3cccn3)c(F)c2)c(C)n1 [Example 19, 3-(3-fluoro-4-(1H-pyrazol-1-yl)phenyl)-2,6-dimethylpyrimidin-4(3H)-one] | 2.92 | 3.21 |
| Cc1cc(=O)n(-c2ccc(N3CCOCC3)c(F)c2)c(COc2cccc(F)c2)n1 [Example 20, 3-(3-fluoro-4-morpholinophenyl)-2-((3-fluorophenoxy)methyl)-6-methylpyrimidin-4(3H)-one] | 4.40 | 95.70 |
| Cc1cc(=O)n(-c2ccc(N3CCCC3)c(F)c2)c(C)n1 [Example 21, 3-(3-fluoro-4-(pyrrolidin-1-yl)phenyl)-2,6-dimethylpyrimidin-4(3H)-one] | 2.89 | 5.57 |
| CCCCN(CCCC)c1ccc(-n2c(C)nc(C)cc2=O)cc1F [Example 22, 3-(4-(di-n-butylamino)-3-fluorophenyl)-2,6-dimethylpyrimidin-4(3H)-one] | 3.72 | 39.47 |
| Cc1cc(=O)n(-c2ccc(N(CC(C)C)CC(C)C)c(F)c2)c(C)n1 [Example 23, 3-(4-(diisobutylamino)-3-fluorophenyl)-2,6-dimethylpyrimidin-4(3H)-one] | 3.96 | 30.31 |
| CCCCCCN(CCCCCC)c1ccc(-n2c(C)nc(C)cc2=O)cc1F [Example 24, 3-(4-(di-n-hexylamino)-3-fluorophenyl)-2,6-dimethylpyrimidin-4(3H)-one] | 4.40 | 60.63 |
| Cc1cc(=O)n(-c2ccc(N(C)CCN3CCOCC3)c(F)c2)c(C)n1 [Example 28, 3-(3-fluoro-4-(methyl(2-morpholinoethyl)amino)phenyl)-2,6-dimethylpyrimidin-4(3H)-one] | 2.30 | 1.60 |
| Cc1cc(=O)n(-c2ccc(NCCN3CCOCC3)cc2Cl)c(C)n1 [Example 29, 3-(2-chloro-4-((2-morpholinoethyl)amino)phenyl)-2,6-dimethylpyrimidin-4(3H)-one] | 2.98 | 6.82 |

| Structure (SMILES) | pIC50 | The ratio with PFD (multiple) |
| --- | --- | --- |
| Cc1cc(=O)n(-c2ccc(NCCCN3CCOCC3)c(F)c2)c(C)n1 [Example 30, 3-(3-fluoro-4-((3-morpholinopropyl)amino)phenyl)-2,6-dimethylpyrimidin-4(3H)-one] | 3.27 | 13.18 |
| Cc1cc(=O)n(-c2ccc(NCCCCN3CCOCC3)c(F)c2)c(C)n1 [Example 31, 3-(3-fluoro-4-((4-morpholinobutyl)amino)phenyl)-2,6-dimethylpyrimidin-4(3H)-one] | 2.65 | 3.50 |
| CCCOCCN(CCOCCC)c1ccc(-n2c(C)nc(C)cc2=O)cc1F [Example 32, 3-(4-(bis(2-propoxyethyl)amino)-3-fluorophenyl)-2,6-dimethylpyrimidin-4(3H)-one] | 3.09 | 9.60 |
| CCCCCCNc1ccc(-n2c(C)nc(C)cc2=O)cc1F [Example 33, 3-(3-fluoro-4-(hexylamino)phenyl)-2,6-dimethylpyrimidin-4(3H)-one] | 3.52 | 25.70 |
| CCOCCCNc1ccc(-n2c(C)nc(C)cc2=O)cc1F [Example 34, 3-(4-((3-ethoxypropyl)amino)-3-fluorophenyl)-2,6-dimethylpyrimidin-4(3H)-one] | 2.60 | 3.10 |
| Cc1cc(=O)n(-c2ccc(NCCCn3ccnc3)c(F)c2)c(C)n1 [Example 35, 3-(4-((3-(1H-imidazol-1-yl)propyl)amino)-3-fluorophenyl)-2,6-dimethylpyrimidin-4(3H)-one] | 2.52 | 2.60 |
| Cc1cc(=O)n(-c2ccc(NCCN3CCCCC3)c(F)c2)c(C)n1 [Example 36, 3-(3-fluoro-4-((2-(piperidin-1-yl)ethyl)amino)phenyl)-2,6-dimethylpyrimidin-4(3H)-one] | 2.57 | 2.90 |
| Cc1cc(=O)n(-c2ccc(NCCCn3cnnn3)c(F)c2)c(C)n1 [Example 37, 3-(4-((3-(1H-tetrazol-1-yl)propyl)amino)-3-fluorophenyl)-2,6-dimethylpyrimidin-4(3H)-one] | 2.37 | 1.80 |
| Cc1cc(=O)n(-c2ccc(NCCc3cc4ccccc4[nH]3)c(F)c2)c(C)n1 [Example 38, 3-(4-((2-(1H-indol-2-yl)ethyl)amino)-3-fluorophenyl)-2,6-dimethylpyrimidin-4(3H)-one] | 3.31 | 15.80 |
| CCCCCCN(CCCCCC)c1ccc(-n2c(C)nc(C)cc2=O)cc1Cl [Example 40, 3-(3-chloro-4-(dihexylamino)phenyl)-2,6-dimethylpyrimidin-4(3H)-one] | 4.22 | 127.50 |
| CCCCCCN(CCCCCC)c1ccc(-n2c(C)nc(C)cc2=O)cc1Br [Example 41, 3-(3-bromo-4-(dihexylamino)phenyl)-2,6-dimethylpyrimidin-4(3H)-one] | 4.22 | 32.65 |
| CCCCCCN(CCCCCC)c1ccc(-n2c(C)nc(C)cc2=O)cc1C#N [Example 42, 2-(dihexylamino)-5-(2,4-dimethyl-6-oxopyrimidin-1(6H)-yl)benzonitrile] | 4.15 | 27.39 |
| Cc1cc(=O)n(-c2ccc(NC(C)(C)Cc3ccc4ccccc4c3)c(Cl)c2)c(C)n1 [Example 45, 3-(3-chloro-4-((2-methyl-1-(naphthalen-2-yl)propan-2-yl)amino)phenyl)-2,6-dimethylpyrimidin-4(3H)-one] | 4.15 | 42.60 |
| Cc1cc(=O)n(-c2ccc(N3CCOCC3)c(Cl)c2)c(C)n1 [Example 46, 3-(3-chloro-4-morpholinophenyl)-2,6-dimethylpyrimidin-4(3H)-one] | 2.97 | 2.80 |
| Cc1cc(=O)n(-c2ccc(N3CCOCC3)c(C(F)(F)F)c2)c(C)n1 [Example 47, 2,6-dimethyl-3-(4-morpholino-3-(trifluoromethyl)phenyl)pyrimidin-4(3H)-one] | 3.03 | 3.92 |
| Cc1cc(=O)n(-c2ccc3ccn(COc4cccc(C#N)c4)c3c2)c(C)n1 [Example 48, 3-((6-(2,4-dimethyl-6-oxopyrimidin-1(6H)-yl)-1H-indol-1-yl)methoxy)benzonitrile] | 3.46 | 10.60 |
| Cc1cc(=O)n(-c2ccc(N3CCOCC3)c(F)c2)c(COc2ccc(F)c(F)c2)n1 [Example 49, 2-((3,4-difluorophenoxy)methyl)-3-(3-fluoro-4-morpholinophenyl)-6-methylpyrimidin-4(3H)-one] | 4.15 | 35.52 |
